Literature values in US20150320096A1, “Dietary Supplement” (MC Corp., priority 2013, published 2015).

Experiments:
[1] = oral
[2] = oral administration
[3] = system: glut-4 transporters; settings: muscle tissue

C/C1=C2/[N-][C@H]([C@H](CC(N)=O)[C@@]2(C)CCC(=O)NC[C@@H](C)OP(=O)([O-])O[C@H]2[C@@H](O)[C@@H](n3cnc4cc(C)c(C)cc43)O[C@@H]2CO)[C@]2(C)N=C(/C(C)=C3N=C(/C=C4N=C1[C@@H](CCC(N)=O)C\4(C)C)[C@@H](CCC(N)=O)[C@]\3(C)CC(N)=O)[C@@H](CCC(N)=O)[C@]2(C)CC(N)=O.[CH3-].[Co+3] [Methylcobalamin]
ingested dose absorbed by diffusion process [1]: approximately 1% | burning sensations, numbness, loss of sensation, and muscle cramps [2]: subjective improvement

O=C(O)CCCCC1CCSS1 (stereo not drawn) [ALA, Alpha-Lipoic Acid]
increase in the number of glut-4 transporters on the outside of the muscle cells [3]: ≤ 50%

COC1=C(OC)C(=O)C(C/C=C(\C)CC/C=C(\C)CC/C=C(\C)CC/C=C(\C)CC/C=C(\C)CC/C=C(\C)CC/C=C(\C)CC/C=C(\C)CC/C=C(\C)CCC=C(C)C)=C(C)C1=O [coenzyme Q10, Coenzyme Q10]
blood glucose levels (dietary supplementation): significantly reduce | hemoglobin A1C (HbA1C) (dietary supplementation): lower | increase of plasma coenzyme Q10 (dietary supplementation, patients with diabetes): at least 3 fold | blood pressure (patients with diabetes): significantly lowered | insulin requirements (patients with diabetes): reduce
